Entries after “also recorded” stand apart in the source; their conditions may differ. Where no end group is shown, it is not given here.
Key:
anti-rPA serum IgG = tested on: anti-rPA serum IgG; parameters: species or system C3H/HeN female mice; settings: mouse, in vivo
anti-rPA IgG = tested on: anti-rPA IgG; parameters: species or system female C3H/HeN mice; settings: mouse, in vivo
MC/9 mast cells = assay type: cell-based, murine; parameters: MCD10: concentration of peptide necessary to induce degranulation of 10% of mast cells: unit not given here
anthrax lethal toxin = tested on: anthrax lethal toxin; parameters: species or system C3H/HeN female mice; settings: mouse, in vivo
anti-PA IgG = tested on: anti-PA IgG; parameters: species or system Female C3H/HeN mice; settings: mouse, in vivo

Substance: INLKALAALAKKIL-NH2 [Mastoparan]
- serum anti-PA IgG geometric means titers (GMT), adjuvant activity (anti-rPA serum IgG): significantly increased
- serum anti-rPA IgG titer versus mice immunized with rPA alone (anti-rPA IgG): significantly greater
- % MC/9 Degranulation (MC/9 mast cells): 66.60%
- MCD10: concentration of peptide necessary to induce degranulation of 10% of mast cells (MC/9 mast cells): 33.07
- mast cell degranulation (β-hexosaminidase released into the culture medium) (MC/9 mast cells): induced mast cell degranulation
- lethal toxin neutralizing antibody response in serum (anthrax lethal toxin): neutralized anthrax lethal toxin; also recorded: significantly increased versus all other groups
- adjuvant activity as determined by serum anti-PA IgG endpoint titers (anti-PA IgG): provided adjuvant activity
